Source: ChEMBL document CHEMBL1130306, “Asymmetric synthesis of a conformationally constrained N-phosphonoalkyl dipeptide” (Bioorg Med Chem Lett, 1997)
Activity calls are given as the source filed them. The rule behind the calls is not given here.

Key:
[1] = molecular target: 72 kDa type IV collagenase (Homo sapiens) (UniProt P08253); experiment: Inhibition of human recombinant gelatinase-A (MMP-2) at 10e-4 M (No significant activity)
[2] = molecular target: T1, Interstitial collagenase (Homo sapiens) (UniProt P03956); experiment: Inhibition of human recombinant fibroblast collagenase (MMP-1) at 10e-4 M (No significant activity)
T1 sequence (whole entry): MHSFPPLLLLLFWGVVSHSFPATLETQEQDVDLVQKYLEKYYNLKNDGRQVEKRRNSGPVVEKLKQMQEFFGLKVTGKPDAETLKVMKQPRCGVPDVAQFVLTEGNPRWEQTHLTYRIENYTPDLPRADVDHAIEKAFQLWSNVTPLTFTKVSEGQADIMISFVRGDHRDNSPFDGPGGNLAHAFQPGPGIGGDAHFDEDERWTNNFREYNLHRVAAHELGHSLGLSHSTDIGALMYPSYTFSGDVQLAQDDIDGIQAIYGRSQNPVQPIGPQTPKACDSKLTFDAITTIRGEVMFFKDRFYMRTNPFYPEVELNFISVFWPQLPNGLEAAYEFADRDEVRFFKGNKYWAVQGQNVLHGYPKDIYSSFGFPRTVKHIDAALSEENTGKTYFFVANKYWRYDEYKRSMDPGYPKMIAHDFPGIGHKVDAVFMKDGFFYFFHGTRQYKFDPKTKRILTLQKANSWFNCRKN

[3] = molecular target: Matrix metalloproteinase-9 (Homo sapiens) (UniProt P14780); experiment: Inhibition of human recombinant Matrix metalloprotease-9 at 10e-4 M (No significant activity)
Chain of Matrix metalloproteinase-9 (Homo sapiens) (P14780 whole entry): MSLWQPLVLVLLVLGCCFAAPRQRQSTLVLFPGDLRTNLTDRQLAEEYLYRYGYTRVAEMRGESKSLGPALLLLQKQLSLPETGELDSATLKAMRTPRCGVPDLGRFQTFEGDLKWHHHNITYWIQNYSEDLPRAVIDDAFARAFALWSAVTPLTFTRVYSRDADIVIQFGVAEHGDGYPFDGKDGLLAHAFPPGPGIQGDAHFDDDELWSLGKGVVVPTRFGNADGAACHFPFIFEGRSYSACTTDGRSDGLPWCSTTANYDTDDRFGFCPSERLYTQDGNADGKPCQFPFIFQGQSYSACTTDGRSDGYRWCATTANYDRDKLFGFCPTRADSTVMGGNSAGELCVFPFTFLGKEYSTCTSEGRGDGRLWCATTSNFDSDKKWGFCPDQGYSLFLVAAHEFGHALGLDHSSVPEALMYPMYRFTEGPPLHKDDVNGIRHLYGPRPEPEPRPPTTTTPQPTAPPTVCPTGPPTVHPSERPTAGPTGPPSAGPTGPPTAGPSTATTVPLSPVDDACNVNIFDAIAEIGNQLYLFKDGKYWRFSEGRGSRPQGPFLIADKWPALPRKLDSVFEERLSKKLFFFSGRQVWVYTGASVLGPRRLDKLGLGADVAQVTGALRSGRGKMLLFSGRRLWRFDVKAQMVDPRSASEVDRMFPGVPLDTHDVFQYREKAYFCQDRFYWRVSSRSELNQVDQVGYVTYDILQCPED

Chain of 72 kDa type IV collagenase (Homo sapiens) (P08253 110-660 limits assumed): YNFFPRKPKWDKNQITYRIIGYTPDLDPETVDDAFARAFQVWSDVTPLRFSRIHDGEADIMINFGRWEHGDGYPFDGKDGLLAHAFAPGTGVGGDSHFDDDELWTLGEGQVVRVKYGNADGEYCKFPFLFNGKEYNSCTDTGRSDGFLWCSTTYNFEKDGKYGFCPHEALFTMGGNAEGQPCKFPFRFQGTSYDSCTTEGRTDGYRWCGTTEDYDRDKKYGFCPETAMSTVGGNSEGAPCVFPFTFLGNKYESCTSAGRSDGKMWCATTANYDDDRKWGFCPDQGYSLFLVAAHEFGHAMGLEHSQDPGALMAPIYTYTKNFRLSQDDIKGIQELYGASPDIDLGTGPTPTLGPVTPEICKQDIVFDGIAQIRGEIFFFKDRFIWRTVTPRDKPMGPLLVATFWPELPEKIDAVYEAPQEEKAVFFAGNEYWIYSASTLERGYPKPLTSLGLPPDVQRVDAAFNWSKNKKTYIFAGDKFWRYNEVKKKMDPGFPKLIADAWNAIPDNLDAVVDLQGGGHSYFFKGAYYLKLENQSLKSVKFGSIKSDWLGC

Activity [1]	Activity [2]	Activity [3]	SMILES
inactive	inactive	inactive	CNC(=O)[C@H](Cc1c[nH]c2ccccc12)NC(=O)[C@H]1CCC[C@@H](P(=O)(O)O)N1
inactive	inactive	inactive	CNC(=O)[C@H](Cc1c[nH]c2ccccc12)NC(=O)[C@@H]1CCC[C@@H](P(=O)(O)O)N1
